Laboratory results as given in patent US8008007B2, “S-adenosyl-L-methionine analogs with extended activated groups for transfer by methyltransferases” (RWTH Aachen, priority 2005, dated 2011).

Legend:
M.BcnIB [1] = test: DNA protection assay with M.BcnIB (wild-type) on phage lambda DNA; format: biochemical; details: 1.10 μg phage lambda DNA, cofactor 300 μM, 37° C. for 4 h, then R.BcnI; pH 7.4 (pH 6.0 for cofactor 6)
Text: (§1) Transfer kinetics of the activated ethyl (—CH2CH3), propyl (—CH2CH2CH3), prop-2-enyl (—CH2CH═CH2), prop-2-ynyl (—CH2C≡CH), but-2-ynyl (—CH2C≡CCH3), pent-2-ynyl (—CH2C≡CCH2CH3) and benzyl group (—CH2C6H5) from cofactors 3-9 by the DNA adenine-N6 methyltransferase M.TaqI and its variant V21 G, the DNA cytosine-C5 methyltransferase M.HhaI and its variant Q82A, the DNA cytosine-N4 methyltransferase M.BcnIB and the DNA cytosine-C5 methyltransferase M.SssI variant Q142A to phage lambda DNA (48502 base pairs) were investigated using a DNA protection assay. This assay makes use of the fact that DNA methyltransferase-catalyzed modifications of nucleobases within the recognition sequences of restriction endonucleases can protect the DNA against fragmentation by these enzymes. […] Unmodified DNA containing 5′-TCGA-3′ recognition sequences is readily fragmentated by R.TaqI. After DNA modification by M.TaqI in the presence of a cofactor with an activated group Z—R modified 5′-TCGA^Z—R-3′ sequences are formed and, as a result, R.TaqI is unable to fragment the modified DNA. Occurrence of fragmentation is then analyzed by agarose gel electrophoresis.
By varying the amounts of DNA methyltransferase, this assay is used to investigate the enzymatic activities of the different DNA methyltransferases with cofactors 3-9 and compare them to the enzymatic activities with the natural cofactor 1. The minimal amount of DNA methyltransferase needed to fully protect 1 μg of phage lambda DNA against restriction endonuclease fragmentation under the given experimental conditions is defined as one enzyme unit (u).
Afterwards the reactions were stopped by heating to 80° C. for 10 min. A solution (10 μL) containing R.BcnI restriction endonuclease (12 u, MBI Fermentas), bovine serum albumin (0.1 mg/mL) and buffer (33 mM Tris acetate, 66 mM potassium acetate, 26.5 mM magnesium chloride, pH 7.9) was added to each dilution and incubation at 37° C. was continued for 1 h. […] Parallel control experiments were performed with phage lambda DNA in the absence of M.BcnIB and in the presence of M.BcnIB (144 ng).

M.SssI-Q142A = target: T1, M.SssI-Q142A (Spiroplasma monobiae, UniProt P15840, Q142A); test: DNA protection assay with M.SssI variant Q142A on phage lambda DNA; format: biochemical; details: 1 μg phage lambda DNA, cofactor 300 μM, 37° C. for 4 h, then R.BstUI
T1 construct: made in house
Text: as §1
By varying the amounts of DNA methyltransferase, this assay is used to investigate the enzymatic activities of the different DNA methyltransferases with cofactors 3-9 and compare them to the enzymatic activities with the natural cofactor 1. […]
Two fold serial dilutions (20 μL) of M.SssI-Q142A (starting with 3300 ng, 73 pmol) in buffer (10 mM Tris hydrochloride, 50 mM sodium chloride, 1 mM dithiothreitol, pH 7.9), phage lambda DNA (1 μg, 31.3 fmol, 3113 5′-CG-3′ recognition sequences, […] recognition sequences, MBI Fermentas) and the natural cofactor 1 (300 μM) or cofactor analogs 5 and 7 (300 μM) were incubated at 37° C. for 4 h. […] Loading buffer (10 μL, 0.25% bromphenol blue, 30% glycerol) was added to each sample, and aliquots (15 μL) were analyzed for the degree of protection by agarose gel (1%) electrophoresis.

M.BcnIB [2] = test: Modification of cytosine-N4 in duplex oligodeoxynucleotide V.VI by M.BcnIB, nucleoside analysis by HPLC/ESI-MS; format: biochemical; details: duplex V.VI 12.5 μM, cofactor 300 μM, enzyme 15 μM, 37° C. over night
Text: Transfer of the activated ethyl (CH2CH3), propyl (CH2CH2CH3), prop-2-enyl (CH2CHCH2), prop-2-ynyl group (CH2CCH), but-2-ynyl (CH2CCCH3), pent-2-ynyl (CH2CCCH2CH3) or benzyl group (CH2C6H5) from cofactors 3-9 by the DNA adenine-N6 methyltransferase M.TaqI, the DNA cytosine-C5 methyltransferase M.HhaI variant Q82A or the DNA cytosine-N4 methyltransferase M.BcnIB to DNA was first investigated using short duplex oligodeoxynucleotides as substrates. After enzymatic transfer the duplex oligodeoxynucleotides were enzymatically fragmented and the resulting modified nucleosides were analyzed by reversed-phase HPLC coupled with ESI-MS.
The duplex oligodeoxynucleotide V.VI was produced by mixing equal molar amounts (2.5 nmol) of complementary single-stranded oligodeoxynucleotide V (5′-[…]-3′) (SEQ ID NO. 3) and VI (5′-[…]-3′) (SEQ ID NO. 4) in water, heating at 85° C. for 5 min and slow cooling to room temperature. […] M.BcnIB was denatured by heating to 80° C. for 10 min and incubated with proteinase K at 55° C. 1 h. Hydrolysis products were removed using gel filtration column (G-25 column, Amersham Biosciences).
The obtained solutions of duplex oligodeoxynucleotides were treated with buffer ( 1/10 volume, 100 mM Tris-HCl, 100 mM magnesium chloride, 10 mM zinc acetate, pH 7.5) containing Nuclease P1 (1500 u, Sigma) and calf intestine alkaline phosphatase (30 u, MBI Fermentas) and incubated at 37° C. for 4 h. Nucleosides were analyzed by reversed-phase HPLC (Discovery C18 150×2.1 mm, 5 μm, equipped with a Supelguard Discovery C18 20×2.1 mm, 5 μm, pre-column, Supelco, Germany) coupled with a mass spectrometric detector (HP 1100 series ESI-MS equipped with single quadruple). Compounds were eluted with methanol (0% for 6 min, followed by linear gradients to 56% in 15 min and to 80% in 1 min) in ammonium formate buffer (20 mM, pH 4.25 for cofactors 3, 4, 6 and pH 3.5 for cofactor 5) at a flow of 0.3 mL/min and detected at 280 nm. For on-line mass spectrometric detection post-column mobile phase modification (equal co-flow of 96% methanol, 4% formic acid and 1 mM sodium hydroxide) was used to enhance the detection efficiency of 2′-deoxycytidine and its derivatives. Mass spectra were recorded in 50-600 m/z range.

pBR322 plasmid DNA = details: modification with M.TaqI or M.HhaI-Q82A/N304A, cofactor 300 μM, 4 h
M.HhaI-Q82A/N304A = target: T2, M.HhaI-Q82A/N304A (Haemophilus parahaemolyticus, UniProt P05102, N304A/Q82A); test: DNA protection assay with M.HhaI variant Q82A/N304A on phage lambda DNA; format: biochemical; details: 1.16 μg phage lambda DNA, cofactor 300 μM, 37° C. for 1 h, enzyme from 1100 ng
T2 construct: made in house
Experimental: Afterwards, the reactions were stopped by heating to 80° C. for 10 min. […] Parallel control experiments were performed with phage lambda DNA in the absence of M.HhaI-Q82A/N304A and in the presence of M.HhaI-Q82A/N304A (1100 ng).

T1 sequence (P15840 whole entry Q142A): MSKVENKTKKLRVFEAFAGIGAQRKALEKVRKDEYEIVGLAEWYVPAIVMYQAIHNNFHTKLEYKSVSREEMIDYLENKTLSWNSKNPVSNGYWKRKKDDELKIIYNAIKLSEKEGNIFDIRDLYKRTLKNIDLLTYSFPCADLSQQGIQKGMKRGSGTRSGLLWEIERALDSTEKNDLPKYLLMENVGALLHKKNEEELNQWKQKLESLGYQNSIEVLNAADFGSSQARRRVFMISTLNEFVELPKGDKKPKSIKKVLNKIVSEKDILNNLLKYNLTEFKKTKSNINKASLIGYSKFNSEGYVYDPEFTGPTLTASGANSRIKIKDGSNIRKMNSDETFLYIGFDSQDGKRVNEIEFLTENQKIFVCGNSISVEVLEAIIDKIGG
T2 sequence (P05102 whole entry Q82A/N304A): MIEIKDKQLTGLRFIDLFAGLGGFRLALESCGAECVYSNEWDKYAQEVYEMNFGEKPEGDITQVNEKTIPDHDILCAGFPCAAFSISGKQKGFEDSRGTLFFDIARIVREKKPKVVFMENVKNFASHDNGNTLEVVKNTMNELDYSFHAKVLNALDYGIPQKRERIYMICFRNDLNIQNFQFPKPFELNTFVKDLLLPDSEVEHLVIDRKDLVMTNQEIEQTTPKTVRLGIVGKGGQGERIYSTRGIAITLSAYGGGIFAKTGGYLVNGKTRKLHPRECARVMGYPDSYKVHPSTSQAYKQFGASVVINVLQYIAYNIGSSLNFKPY

| Structure (SMILES) | specific activity of M.BcnIB with the cofactor (M.BcnIB [1]) [u/μg] | cofactor function for M.BcnIB (transfer of group Z-R to cytosine-N4) (M.BcnIB [2]) | other results |
| --- | --- | --- | --- |
| CC#CC[S+](CCC(N)C(=O)O)CC1OC(n2cnc3c(N)ncnc32)C(O)C1O (mixture of isomers) [Cofactor 7] | 28 | – | specific activity of M.SssI-Q142A with the cofactor (M.SssI-Q142A): 0.6 u/μg |
| CC[S+](CCC(N)C(=O)O)CC1OC(n2cnc3c(N)ncnc32)C(O)C1O (centres unmarked) [Cofactor 3] | – | functions as a cofactor | – |
| CCC[S+](CCC(N)C(=O)O)CC1OC(n2cnc3c(N)ncnc32)C(O)C1O (centres unmarked) [Cofactor 4] | – | does not function as a cofactor | – |
| C=CC[S+](CCC(N)C(=O)O)CC1OC(n2cnc3c(N)ncnc32)C(O)C1O (centres unmarked) [Cofactor 5] | – | functions as a cofactor | specific activity of M.SssI-Q142A with the cofactor (M.SssI-Q142A): 1.2 u/μg |
| C#CC[S+](CCC(N)C(=O)O)CC1OC(n2cnc3c(N)ncnc32)C(O)C1O (centres unmarked) [Cofactor 6] | 0 | does not function as a cofactor | – |
| CCC#CC[S+](CCC(N)C(=O)O)CC1OC(n2cnc3c(N)ncnc32)C(O)C1O (centres unmarked) [Cofactor 8] | 14 | – | – |
| NCCCC(=O)NCC#CC[S+](CCC(N)C(=O)O)CC1OC(n2cnc3c(N)ncnc32)C(O)C1O (centres unmarked) [Cofactor 10] | – | – | two-step labeling of amino-modified pBR322 DNA with fluorescein N-hydroxysuccinimidyl ester (pBR322 plasmid DNA): labeling is sequence-specific; protection of phage lambda DNA against R.Hin6I fragmentation (M.HhaI-Q82A/N304A): almost protected phage lambda DNA |
